Results on 45 compounds are retold here after ChEMBL document CHEMBL1135152, “Design, synthesis, and SAR of monobenzamidines and aminoisoquinolines as factor Xa inhibitors” (Bioorg Med Chem Lett, 2002).

Data set [1] can be described thus: Bioavailability in rat. In kind it is ADME, organism-based. Particulars: in vivo.
Data set [2] has as its target T1, Coagulation factor X (Homo sapiens, UniProt P00742). The data set can be described thus: Tested in vitro for the inhibitory activity against Coagulation factor Xa.
The next data set deals with Plasminogen (Homo sapiens, UniProt P00747). Nature of the data set: Tested in vitro for the inhibitory activity against plasmin.
Another data set has as its target Serine protease 1 (Homo sapiens, UniProt P07477). The data set can be described thus: Tested in vitro for the inhibitory activity against trypsin.
For another data set, the system named is Oryctolagus cuniculus. Nature of the data set: Tested for inhibition of thrombosis in rabbit deep vein model after intravenous administration at dosage of 2 mg/kg. In kind it is functional.
The target in a further data set is Kallikrein-1 (Homo sapiens, UniProt P06870). Nature of the data set: Tested in vitro for the inhibitory activity against kallikrein.
In data set [3] the target is Vitamin K-dependent protein C (Homo sapiens, UniProt P04070). The data set can be described thus: Tested in vitro for the inhibitory activity against activated protein C (APC).
Data set [4] addresses Tissue-type plasminogen activator (Homo sapiens, UniProt P00750). The data set can be described thus: Tested in vitro for the inhibitory activity against Tissue plasminogen activator (tissue plasminogen activator).
For a further data set, the target named is Prothrombin (Homo sapiens, UniProt P00734). Nature of the data set: Tested in vitro for the inhibitory activity against thrombin.
The target of data set [5] is T1, Coagulation factor X. Nature of the data set: Tested in vitro for the inhibitory activity against Coagulation factor X.
Data set [6] is described as follows: Bioavailability in rat was reported at the dose of 6 mg/kg in 25% PEG-300. In kind it is ADME, organism-based. Particulars: in vivo.

A value given as a limit tells only on which side of the number the result lay.

T1 sequence (P00742 41-179 limits assumed): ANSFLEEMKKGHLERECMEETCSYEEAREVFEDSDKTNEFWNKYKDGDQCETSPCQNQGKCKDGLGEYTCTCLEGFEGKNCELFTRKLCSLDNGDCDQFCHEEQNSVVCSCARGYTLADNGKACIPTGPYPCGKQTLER
T1 sequence (P00742 235-488 limits assumed): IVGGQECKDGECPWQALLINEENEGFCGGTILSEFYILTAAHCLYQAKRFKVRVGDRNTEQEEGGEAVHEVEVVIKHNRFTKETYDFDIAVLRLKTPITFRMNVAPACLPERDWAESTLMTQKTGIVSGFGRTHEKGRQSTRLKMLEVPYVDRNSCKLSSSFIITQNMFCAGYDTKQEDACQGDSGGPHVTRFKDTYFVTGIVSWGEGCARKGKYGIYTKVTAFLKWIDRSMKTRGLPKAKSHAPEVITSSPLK
Chain of Serine protease 1 (P07477 whole entry): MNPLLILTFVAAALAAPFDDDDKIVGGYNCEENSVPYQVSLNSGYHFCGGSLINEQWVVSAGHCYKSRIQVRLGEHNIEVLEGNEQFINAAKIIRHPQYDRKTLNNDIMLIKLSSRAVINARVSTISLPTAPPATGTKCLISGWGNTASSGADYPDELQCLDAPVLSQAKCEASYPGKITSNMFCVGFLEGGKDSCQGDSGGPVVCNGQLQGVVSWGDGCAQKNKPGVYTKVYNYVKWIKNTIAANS
Chain of Kallikrein-1 (P06870 whole entry): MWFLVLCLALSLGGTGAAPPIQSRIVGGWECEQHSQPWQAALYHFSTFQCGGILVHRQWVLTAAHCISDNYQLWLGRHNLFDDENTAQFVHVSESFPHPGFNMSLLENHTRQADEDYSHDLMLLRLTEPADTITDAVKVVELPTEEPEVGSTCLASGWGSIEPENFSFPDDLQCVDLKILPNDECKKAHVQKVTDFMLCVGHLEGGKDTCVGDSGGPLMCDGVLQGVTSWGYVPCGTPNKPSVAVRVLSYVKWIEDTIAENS
Chain of Vitamin K-dependent protein C (P04070 43-197 limits assumed): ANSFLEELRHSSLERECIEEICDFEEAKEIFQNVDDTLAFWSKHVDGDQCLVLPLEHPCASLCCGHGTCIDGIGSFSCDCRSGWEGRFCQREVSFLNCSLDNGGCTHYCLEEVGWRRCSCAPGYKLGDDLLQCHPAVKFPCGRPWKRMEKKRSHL
Chain of Vitamin K-dependent protein C (P04070 212-461 limits assumed): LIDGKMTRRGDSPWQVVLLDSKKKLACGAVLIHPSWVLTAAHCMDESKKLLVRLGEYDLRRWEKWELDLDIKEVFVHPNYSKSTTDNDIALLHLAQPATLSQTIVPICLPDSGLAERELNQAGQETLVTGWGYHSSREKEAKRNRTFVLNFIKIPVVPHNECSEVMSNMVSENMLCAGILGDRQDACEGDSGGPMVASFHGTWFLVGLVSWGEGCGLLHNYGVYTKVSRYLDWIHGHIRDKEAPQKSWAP
Chain of Tissue-type plasminogen activator (P00750 whole entry): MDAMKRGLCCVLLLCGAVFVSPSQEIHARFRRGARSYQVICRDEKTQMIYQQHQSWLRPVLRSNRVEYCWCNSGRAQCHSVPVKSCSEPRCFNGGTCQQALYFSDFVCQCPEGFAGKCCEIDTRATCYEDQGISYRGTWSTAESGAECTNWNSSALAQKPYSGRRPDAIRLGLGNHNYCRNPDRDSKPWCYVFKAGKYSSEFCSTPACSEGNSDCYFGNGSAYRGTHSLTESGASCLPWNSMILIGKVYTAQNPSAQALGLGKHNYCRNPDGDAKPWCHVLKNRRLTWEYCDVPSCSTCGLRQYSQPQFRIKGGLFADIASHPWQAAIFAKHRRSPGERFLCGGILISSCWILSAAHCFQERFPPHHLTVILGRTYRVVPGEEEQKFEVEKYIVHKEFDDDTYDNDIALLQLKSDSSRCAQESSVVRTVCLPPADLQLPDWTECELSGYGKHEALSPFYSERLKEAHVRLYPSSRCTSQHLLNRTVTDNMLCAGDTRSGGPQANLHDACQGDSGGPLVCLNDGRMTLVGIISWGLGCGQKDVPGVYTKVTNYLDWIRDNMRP
Chain of Plasminogen (P00747 97-580 limits assumed): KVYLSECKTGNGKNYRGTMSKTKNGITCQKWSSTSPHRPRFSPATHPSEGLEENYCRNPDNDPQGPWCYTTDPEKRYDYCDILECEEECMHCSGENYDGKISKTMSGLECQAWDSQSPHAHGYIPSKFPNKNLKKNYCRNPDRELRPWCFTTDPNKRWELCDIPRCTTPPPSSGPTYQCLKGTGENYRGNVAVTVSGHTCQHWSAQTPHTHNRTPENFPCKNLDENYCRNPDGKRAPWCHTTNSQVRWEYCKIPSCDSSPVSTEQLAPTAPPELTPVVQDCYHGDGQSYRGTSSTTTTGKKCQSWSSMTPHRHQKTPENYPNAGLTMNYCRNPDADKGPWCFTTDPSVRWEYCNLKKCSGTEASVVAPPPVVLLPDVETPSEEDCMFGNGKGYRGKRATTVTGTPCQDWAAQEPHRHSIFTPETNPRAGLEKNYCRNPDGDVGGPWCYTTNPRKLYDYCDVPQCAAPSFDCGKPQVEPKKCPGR
Chain of Plasminogen (P00747 581-810 limits assumed): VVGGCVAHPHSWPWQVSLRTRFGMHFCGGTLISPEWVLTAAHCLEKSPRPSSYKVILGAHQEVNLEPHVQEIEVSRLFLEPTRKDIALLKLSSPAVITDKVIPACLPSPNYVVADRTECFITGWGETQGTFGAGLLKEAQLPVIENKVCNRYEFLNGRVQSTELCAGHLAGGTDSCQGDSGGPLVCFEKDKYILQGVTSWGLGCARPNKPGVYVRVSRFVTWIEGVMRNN

The term bioavailability denotes dose-corrected exposure relative to a reference, in per cent. In data set [1], `N=C(N)c1cccc(Oc2ccc(C(=O)O)cc2NC(=O)c2ccc(-c3ccccc3S(N)(=O)=O)cc2)c1` displayed a bioavailability of 5.5%.

Broadly, the IC50 is the midpoint of a concentration-inhibition curve. Low values mean greater potency in that assay, high ones weaker potency in that assay. As for `N=C(N)c1cccc(Oc2ccc(Cl)cc2C(=O)Nc2ccc(-c3ccccc3S(N)(=O)=O)cc2)c1`, at Coagulation factor X [2], the IC50 was determined as 7.7 nM.

With `N=C(N)c1cccc(Oc2cc(Br)ccc2NC(=O)c2ccc(-c3ccccc3S(N)(=O)=O)cc2)c1`, the midpoint of inhibition on Coagulation factor X [2], the IC50, lay at 2.1 nM.

Turning to `CC(=O)Nc1ccc(Oc2cccc(C(=N)N)c2)c(C(=O)Nc2ccc(-c3ccccc3S(N)(=O)=O)cc2)c1`, on Coagulation factor X [2], the 50% inhibitory concentration (IC50) came to 7.7 nM.

On to `N=C(N)c1cccc(OCCN(Cc2ccoc2)C(=O)c2ccc(-c3ccccc3S(N)(=O)=O)cc2)c1`, for which the 50% inhibitory concentration (IC50) at Coagulation factor X [2] is 7.8 nM.

In turn, `Nc1nccc2ccc(OCC(c3ccccc3)N3Cc4cc(-c5ccccc5S(N)(=O)=O)ccc4C3=O)cc12` (stereo not given) had an IC50 at Coagulation factor X [2] of 623 nM.

On Coagulation factor X [2], `Nc1nccc2ccc(OCC(Cc3ccccc3)N3Cc4cc(-c5ccccc5S(N)(=O)=O)ccc4C3=O)cc12` (stereo not given) gave an IC50 of 226 nM.

As to `N=C(N)c1cccc(OCCN(Cc2ccccc2)C(=O)c2ccc(-c3ccccc3S(N)(=O)=O)cc2)c1`, 14 nM corresponded to half-maximal inhibition at Coagulation factor X [2] (IC50).

By inhibition in vivo is commonly meant the relative decrease from the control value, in per cent. In the case of `N=C(N)c1cccc(Oc2ccccc2NC(=O)c2ccc(-c3ccccc3S(N)(=O)=O)cc2)c1`, the half-maximal inhibitory concentration (IC50) is 43000 nM at Plasminogen; 970 nM on Serine protease 1; 3.6 nM at Coagulation factor X [2]; 250 nM against Kallikrein-1; > 181000 nM in data set [3]; 18000 nM in [4]. Besides, the IC50 against Prothrombin was > 11000 nM. In addition, in the data set on Oryctolagus cuniculus, the inhibition in vivo at 2 mg/kg came out at 41%.

At Coagulation factor X [2], `N=C(N)c1cccc(Oc2cc([N+](=O)[O-])ccc2C(=O)Nc2ccc(-c3ccccc3S(N)(=O)=O)cc2)c1` gave a 50% inhibitory concentration (IC50) of 4.8 nM. The bioavailability in [1] came out at 0.3%.

In turn, `N=C(N)c1cccc(Oc2cc(N)ccc2C(=O)Nc2ccc(-c3ccccc3S(N)(=O)=O)cc2)c1` returned a half-inhibitory concentration (IC50) against Coagulation factor X [2] of 19 nM.

Take `N=C(N)c1cccc(OCC(NC(=O)c2ccc(-c3ccccc3S(N)(=O)=O)cc2)c2ccccc2)c1` (stereo not given): it took 3.4 nM to reach half-maximal inhibition at Coagulation factor X [2] (IC50).

Consider `N=C(N)c1cccc(Oc2ccc(Br)cc2C(=O)Nc2ccc(-c3ccccc3S(N)(=O)=O)cc2)c1`, for which, on Coagulation factor X [2], half-maximal inhibition (IC50) was put at 4.4 nM.

Consider `N=C(N)c1cccc(Oc2ccccc2C(=O)Nc2ccc(-c3ccccc3S(N)(=O)=O)cc2)c1`, for which, on Coagulation factor X [2], half-maximal inhibition (IC50) required 7.3 nM.

Regarding `N=C(N)c1cccc(OCC(Cc2ccccc2)NC(=O)c2ccc(-c3ccccc3S(N)(=O)=O)cc2)c1` (stereo not given), the half-maximal inhibitory concentration (IC50) against Coagulation factor X [2] is 5.6 nM.

Turning to `N=C(N)c1cccc(OCCNC(=O)c2ccc(-c3ccccc3S(N)(=O)=O)cc2)c1`, the IC50 was 13000 nM on Plasminogen; 1200 nM on Serine protease 1; 7.5 nM at Coagulation factor X [2]; 2100 nM against Kallikrein-1; 3700 nM in data set [3]; 109000 nM in data set [4]. The same compound yielded a 50% inhibitory concentration (IC50) against Prothrombin of 321000 nM.

On Coagulation factor X [2], `Nc1nccc2ccc(Oc3ccc(F)cc3NC(=O)c3ccc(-c4ccccc4S(N)(=O)=O)cc3)cc12` showed an IC50 of 1320 nM.

Take `N=C(N)c1cccc(OCCN2Cc3cc(-c4ccccc4S(N)(=O)=O)ccc3C2=O)c1`: it took 3.6 nM to reach half-maximal inhibition against Coagulation factor X [2] (IC50).

On to `N=C(N)c1cccc(Oc2cc(Br)ccc2C(=O)Nc2ccc(-c3ccccc3S(N)(=O)=O)cc2)c1`, for which, at Coagulation factor X [2], the midpoint of inhibition, the IC50, lay at 1.2 nM.

Compound `N=C(N)c1cccc(Oc2cc(Cl)ccc2C(=O)Nc2ccc(-c3ccccc3S(N)(=O)=O)cc2)c1` registered a half-inhibitory concentration (IC50) on Coagulation factor X [2] of 1.5 nM.

On Coagulation factor X [2], `COc1ccc(NC(=O)c2ccc(-c3ccccc3S(N)(=O)=O)cc2)c(Oc2cccc(C(=N)N)c2)c1` registered an IC50 of 1.6 nM.

In turn, `Cc1ccc(NC(=O)c2ccc(-c3ccccc3S(N)(=O)=O)cc2)c(Oc2cccc(C(=N)N)c2)c1` came in with an IC50 on Coagulation factor X [2] of 9.9 nM.

`CC(COc1ccc2ccnc(N)c2c1)N1Cc2cc(-c3ccccc3S(N)(=O)=O)ccc2C1=O` (stereo not given): at Coagulation factor X [2], the IC50 was determined as 25 nM.

As to `CN(C)c1ccc(Oc2cccc(C(=N)N)c2)c(C(=O)Nc2ccc(-c3ccccc3S(N)(=O)=O)cc2)c1`, half-maximal inhibition against Coagulation factor X [2] (IC50) was put at 10 nM.

As for `N=C(N)c1cccc(Oc2ccc([N+](=O)[O-])cc2C(=O)Nc2ccc(-c3ccccc3S(N)(=O)=O)cc2)c1`, half-maximal inhibition against Coagulation factor X [5] (IC50) required 1.9 nM.

As for `N=C(N)c1cccc(Oc2ccc(C(F)(F)F)cc2NC(=O)c2ccc(-c3ccccc3S(N)(=O)=O)cc2)c1`, the IC50 at Coagulation factor X [2] amounted to 2.5 nM.

On to `N=C(N)c1cccc(Oc2ccc(N)cc2C(=O)Nc2ccc(-c3ccccc3S(N)(=O)=O)cc2)c1`, for which inhibition on Coagulation factor X [2] was half-maximal at 12 nM (IC50).

As for `N=C(N)c1cccc(Oc2ccc(Br)cc2NC(=O)c2ccc(-c3ccccc3S(N)(=O)=O)cc2)c1`, half-maximal inhibition on Coagulation factor X [2] (IC50) was put at 1.6 nM.

`CS(=O)(=O)c1ccc(Oc2ccc3ccnc(N)c3c2)c(NC(=O)c2ccc(-c3ccccc3S(N)(=O)=O)cc2)c1` came in with an IC50 at Coagulation factor X [2] of 6060 nM.

Turning to `CC(=O)Nc1ccc(C(=O)Nc2ccc(-c3ccccc3S(N)(=O)=O)cc2)c(Oc2cccc(C(=N)N)c2)c1`, at Coagulation factor X [2], the midpoint of inhibition, the IC50, lay at 61 nM.

`Nc1nccc2ccc(OCCN3Cc4cc(-c5ccccc5S(N)(=O)=O)ccc4C3=O)cc12` returned a 50% inhibitory concentration (IC50) against Coagulation factor X [2] of 22 nM. Besides, the bioavailability in data set [6] is < 5%.

`CS(=O)(=O)Nc1ccc(Oc2cccc(C(=N)N)c2)c(C(=O)Nc2ccc(-c3ccccc3S(N)(=O)=O)cc2)c1`: at Coagulation factor X [2], the concentration for half-maximal inhibition (IC50) was determined as 5.4 nM.

In the case of `N=C(N)c1cccc(OCCN(CC(=O)O)C(=O)c2ccc(-c3ccccc3S(N)(=O)=O)cc2)c1`, the IC50 against Coagulation factor X [2] turned out to be 34 nM.

`CC(COc1cccc(C(=N)N)c1)NC(=O)c1ccc(-c2ccccc2S(N)(=O)=O)cc1` (stereo not given): 16 nM corresponded to half-maximal inhibition against Coagulation factor X [2] (IC50).

Compound `Nc1nccc2ccc(Oc3ccc(C(F)(F)F)cc3NC(=O)c3ccc(-c4ccccc4S(N)(=O)=O)cc3)cc12` registered a half-maximal inhibitory concentration (IC50) against Coagulation factor X [2] of 1810 nM.

With `N=C(N)c1cccc(OCCN(Cc2cccnc2)C(=O)c2ccc(-c3ccccc3S(N)(=O)=O)cc2)c1`, at Coagulation factor X [2], it took 11 nM to reach half-maximal inhibition (IC50).

With `N=C(N)c1cccc(Oc2cc(Cl)ccc2NC(=O)c2ccc(-c3ccccc3S(N)(=O)=O)cc2)c1`, it took 1.6 nM to reach half-maximal inhibition at Coagulation factor X [2] (IC50).

With `N=C(N)c1cccc(Oc2ccc(F)cc2NC(=O)c2ccc(-c3ccccc3S(N)(=O)=O)cc2)c1`, the IC50 at Coagulation factor X [2] is 4.5 nM.

With `N=C(N)c1cccc(Oc2cc(O)ccc2NC(=O)c2ccc(-c3ccccc3S(N)(=O)=O)cc2)c1`, the IC50 at Coagulation factor X [2] is 3.9 nM.

Compound `Nc1nccc2ccc(Oc3ccccc3NC(=O)c3ccc(-c4ccccc4S(N)(=O)=O)cc3)cc12` came in with a half-maximal inhibitory concentration (IC50) at Coagulation factor X [2] of 646 nM.

As for `COC(=O)CN(CCOc1cccc(C(=N)N)c1)C(=O)c1ccc(-c2ccccc2S(N)(=O)=O)cc1`, it took 13 nM to reach half-maximal inhibition at Coagulation factor X [2] (IC50).

`CN(C)c1ccc(C(=O)Nc2ccc(-c3ccccc3S(N)(=O)=O)cc2)c(Oc2cccc(C(=N)N)c2)c1` came in with an IC50 against Coagulation factor X [2] of 16 nM.

Compound `COC(=O)c1ccc(Oc2cccc(C(=N)N)c2)c(NC(=O)c2ccc(-c3ccccc3S(N)(=O)=O)cc2)c1` showed an IC50 against Coagulation factor X [2] of 2.5 nM.

With `CNc1ccc(C(=O)Nc2ccc(-c3ccccc3S(N)(=O)=O)cc2)c(Oc2cccc(C(=N)N)c2)c1`, the IC50 at Coagulation factor X [2] turned out to be 12 nM.

Take `CS(=O)(=O)c1ccc(Oc2cccc(C(=N)N)c2)c(NC(=O)c2ccc(-c3ccccc3S(N)(=O)=O)cc2)c1`: the IC50 against Coagulation factor X [2] was determined as 1.8 nM.
